In data set [1] the target is Centromere-associated protein E (Homo sapiens) (UniProt Q02224). The data set can be described thus: Inhibition of MT-stimulated CENP-E ATPase activity.
The test system of a further data set is HCT-116. The data set can be described thus: Antiproliferative activity against human HCT116 cells after 72 hrs by Alamar blue assay. In kind it is functional. As to conditions: HCT-116, 72 h. In general terms: Resazurin is reduced to fluorescent resorufin, in cell work by metabolically active cells.
Data set [2] has as its target T1, Kinesin heavy chain isoform 5A (Homo sapiens) (UniProt Q12840).
T1 sequence (whole entry): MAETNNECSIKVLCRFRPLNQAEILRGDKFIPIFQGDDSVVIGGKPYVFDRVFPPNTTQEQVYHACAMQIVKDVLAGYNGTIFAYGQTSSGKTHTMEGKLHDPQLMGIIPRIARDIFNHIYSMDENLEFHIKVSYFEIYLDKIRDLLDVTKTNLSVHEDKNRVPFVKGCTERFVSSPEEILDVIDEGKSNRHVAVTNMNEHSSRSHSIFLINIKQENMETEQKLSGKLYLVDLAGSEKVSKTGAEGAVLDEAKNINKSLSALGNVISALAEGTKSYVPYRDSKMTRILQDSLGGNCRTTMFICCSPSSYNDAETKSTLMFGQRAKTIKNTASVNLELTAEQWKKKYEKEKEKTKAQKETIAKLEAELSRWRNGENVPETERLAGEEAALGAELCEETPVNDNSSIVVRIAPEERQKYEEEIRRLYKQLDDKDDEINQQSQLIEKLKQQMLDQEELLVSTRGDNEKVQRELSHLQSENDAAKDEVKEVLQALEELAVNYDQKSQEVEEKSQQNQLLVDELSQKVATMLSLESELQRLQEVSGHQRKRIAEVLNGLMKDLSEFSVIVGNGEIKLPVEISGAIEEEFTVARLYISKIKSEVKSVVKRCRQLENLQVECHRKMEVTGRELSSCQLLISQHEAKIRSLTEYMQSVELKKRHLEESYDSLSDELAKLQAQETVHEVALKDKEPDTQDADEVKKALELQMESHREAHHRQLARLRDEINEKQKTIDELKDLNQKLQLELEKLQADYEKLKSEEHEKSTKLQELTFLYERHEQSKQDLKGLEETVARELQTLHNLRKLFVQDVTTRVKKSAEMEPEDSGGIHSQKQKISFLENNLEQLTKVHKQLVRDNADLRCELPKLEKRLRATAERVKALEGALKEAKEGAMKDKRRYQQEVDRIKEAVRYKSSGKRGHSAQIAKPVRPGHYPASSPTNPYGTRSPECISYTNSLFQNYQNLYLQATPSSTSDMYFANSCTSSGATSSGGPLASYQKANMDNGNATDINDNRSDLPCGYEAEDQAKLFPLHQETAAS
Briefly: Inhibition of Kif5a ATPase activity.

The nature of data set [3]: Antiproliferative activity against human hTERT-HME1 cells after 72 hrs by Alamar blue assay. The class given is cell-based.
For data set [4], the target named is T1, Kinesin heavy chain isoform 5A (Homo sapiens). Briefly: Inhibition of MT-stimulated Kif5a ATPase activity.
Data set [5] concerns the target T2, Kinesin-like protein KIF20A (Homo sapiens) (UniProt O95235).
T2 sequence (whole entry): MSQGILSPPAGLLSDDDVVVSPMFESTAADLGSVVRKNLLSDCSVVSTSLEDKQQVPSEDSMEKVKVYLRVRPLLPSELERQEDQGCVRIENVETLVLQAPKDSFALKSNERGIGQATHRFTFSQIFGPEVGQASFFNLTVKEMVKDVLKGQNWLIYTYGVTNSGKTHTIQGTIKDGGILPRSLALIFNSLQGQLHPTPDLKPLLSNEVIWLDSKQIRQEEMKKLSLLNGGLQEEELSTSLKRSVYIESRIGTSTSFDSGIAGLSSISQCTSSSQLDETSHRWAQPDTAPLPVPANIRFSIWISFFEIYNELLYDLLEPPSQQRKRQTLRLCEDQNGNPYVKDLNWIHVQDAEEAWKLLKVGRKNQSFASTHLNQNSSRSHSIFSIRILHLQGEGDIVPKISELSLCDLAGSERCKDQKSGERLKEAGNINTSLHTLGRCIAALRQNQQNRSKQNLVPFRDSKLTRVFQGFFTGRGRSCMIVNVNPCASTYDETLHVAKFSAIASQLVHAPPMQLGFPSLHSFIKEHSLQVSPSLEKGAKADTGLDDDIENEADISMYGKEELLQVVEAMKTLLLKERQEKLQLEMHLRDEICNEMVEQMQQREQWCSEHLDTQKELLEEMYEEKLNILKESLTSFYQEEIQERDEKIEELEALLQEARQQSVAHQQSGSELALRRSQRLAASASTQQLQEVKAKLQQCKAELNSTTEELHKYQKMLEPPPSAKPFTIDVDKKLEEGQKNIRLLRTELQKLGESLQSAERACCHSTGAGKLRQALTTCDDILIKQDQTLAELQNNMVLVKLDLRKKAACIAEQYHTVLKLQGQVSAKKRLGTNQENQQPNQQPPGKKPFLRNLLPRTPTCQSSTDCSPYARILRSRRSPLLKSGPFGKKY
Briefly: Inhibition of MT-stimulated MKLP2 ATPase activity.

Data set [6] can be described thus: Turbidimetric solubility of the compound at pH 2. In kind it is physicochemical. As to conditions: buffer.
Data set [7] in a line: Antitumor activity against human LXFS 538 cells xenografted in nu/nu nude Charles river mouse assessed as tumor volume doubling time at 20 mg/kg on days 0, 2 and 4 and 15 mg/kg on days 17, 19, 24 measured after 28 days (reference value: 8.8 days). In kind it is functional.
The target in data set [8] is T2, Kinesin-like protein KIF20A (Homo sapiens). The data set can be described thus: Inhibition of MKLP2 ATPase activity.
Data set [9] in a line: Antitumor activity against human LXFS 538 cells xenografted in nu/nu nude Charles river mouse assessed as inhibition of tumor growth dosed at 20 mg/kg on days 0, 2 and 4 and 15 mg/kg on days 17, 19, 24 measured after 10 days. The class given is functional. In general terms: In xenograft studies the graft and the host belong to different species.

Activity calls are given as the source filed them. The calls are words filed in the database; no cut-off is given here. Where only a bound is given, the exact number is not on record here.

The GI50 is the concentration that inhibits growth by half. Low readings indicate more potent growth inhibition, high ones less potent growth inhibition. By solubility (kinetic) is commonly meant solubility judged after dilution from a stock solution rather than from solid. As a reminder, the T/C is the ratio of treated to control.

Centromere-associated protein E (Homo sapiens), sequence (Q02224 whole entry): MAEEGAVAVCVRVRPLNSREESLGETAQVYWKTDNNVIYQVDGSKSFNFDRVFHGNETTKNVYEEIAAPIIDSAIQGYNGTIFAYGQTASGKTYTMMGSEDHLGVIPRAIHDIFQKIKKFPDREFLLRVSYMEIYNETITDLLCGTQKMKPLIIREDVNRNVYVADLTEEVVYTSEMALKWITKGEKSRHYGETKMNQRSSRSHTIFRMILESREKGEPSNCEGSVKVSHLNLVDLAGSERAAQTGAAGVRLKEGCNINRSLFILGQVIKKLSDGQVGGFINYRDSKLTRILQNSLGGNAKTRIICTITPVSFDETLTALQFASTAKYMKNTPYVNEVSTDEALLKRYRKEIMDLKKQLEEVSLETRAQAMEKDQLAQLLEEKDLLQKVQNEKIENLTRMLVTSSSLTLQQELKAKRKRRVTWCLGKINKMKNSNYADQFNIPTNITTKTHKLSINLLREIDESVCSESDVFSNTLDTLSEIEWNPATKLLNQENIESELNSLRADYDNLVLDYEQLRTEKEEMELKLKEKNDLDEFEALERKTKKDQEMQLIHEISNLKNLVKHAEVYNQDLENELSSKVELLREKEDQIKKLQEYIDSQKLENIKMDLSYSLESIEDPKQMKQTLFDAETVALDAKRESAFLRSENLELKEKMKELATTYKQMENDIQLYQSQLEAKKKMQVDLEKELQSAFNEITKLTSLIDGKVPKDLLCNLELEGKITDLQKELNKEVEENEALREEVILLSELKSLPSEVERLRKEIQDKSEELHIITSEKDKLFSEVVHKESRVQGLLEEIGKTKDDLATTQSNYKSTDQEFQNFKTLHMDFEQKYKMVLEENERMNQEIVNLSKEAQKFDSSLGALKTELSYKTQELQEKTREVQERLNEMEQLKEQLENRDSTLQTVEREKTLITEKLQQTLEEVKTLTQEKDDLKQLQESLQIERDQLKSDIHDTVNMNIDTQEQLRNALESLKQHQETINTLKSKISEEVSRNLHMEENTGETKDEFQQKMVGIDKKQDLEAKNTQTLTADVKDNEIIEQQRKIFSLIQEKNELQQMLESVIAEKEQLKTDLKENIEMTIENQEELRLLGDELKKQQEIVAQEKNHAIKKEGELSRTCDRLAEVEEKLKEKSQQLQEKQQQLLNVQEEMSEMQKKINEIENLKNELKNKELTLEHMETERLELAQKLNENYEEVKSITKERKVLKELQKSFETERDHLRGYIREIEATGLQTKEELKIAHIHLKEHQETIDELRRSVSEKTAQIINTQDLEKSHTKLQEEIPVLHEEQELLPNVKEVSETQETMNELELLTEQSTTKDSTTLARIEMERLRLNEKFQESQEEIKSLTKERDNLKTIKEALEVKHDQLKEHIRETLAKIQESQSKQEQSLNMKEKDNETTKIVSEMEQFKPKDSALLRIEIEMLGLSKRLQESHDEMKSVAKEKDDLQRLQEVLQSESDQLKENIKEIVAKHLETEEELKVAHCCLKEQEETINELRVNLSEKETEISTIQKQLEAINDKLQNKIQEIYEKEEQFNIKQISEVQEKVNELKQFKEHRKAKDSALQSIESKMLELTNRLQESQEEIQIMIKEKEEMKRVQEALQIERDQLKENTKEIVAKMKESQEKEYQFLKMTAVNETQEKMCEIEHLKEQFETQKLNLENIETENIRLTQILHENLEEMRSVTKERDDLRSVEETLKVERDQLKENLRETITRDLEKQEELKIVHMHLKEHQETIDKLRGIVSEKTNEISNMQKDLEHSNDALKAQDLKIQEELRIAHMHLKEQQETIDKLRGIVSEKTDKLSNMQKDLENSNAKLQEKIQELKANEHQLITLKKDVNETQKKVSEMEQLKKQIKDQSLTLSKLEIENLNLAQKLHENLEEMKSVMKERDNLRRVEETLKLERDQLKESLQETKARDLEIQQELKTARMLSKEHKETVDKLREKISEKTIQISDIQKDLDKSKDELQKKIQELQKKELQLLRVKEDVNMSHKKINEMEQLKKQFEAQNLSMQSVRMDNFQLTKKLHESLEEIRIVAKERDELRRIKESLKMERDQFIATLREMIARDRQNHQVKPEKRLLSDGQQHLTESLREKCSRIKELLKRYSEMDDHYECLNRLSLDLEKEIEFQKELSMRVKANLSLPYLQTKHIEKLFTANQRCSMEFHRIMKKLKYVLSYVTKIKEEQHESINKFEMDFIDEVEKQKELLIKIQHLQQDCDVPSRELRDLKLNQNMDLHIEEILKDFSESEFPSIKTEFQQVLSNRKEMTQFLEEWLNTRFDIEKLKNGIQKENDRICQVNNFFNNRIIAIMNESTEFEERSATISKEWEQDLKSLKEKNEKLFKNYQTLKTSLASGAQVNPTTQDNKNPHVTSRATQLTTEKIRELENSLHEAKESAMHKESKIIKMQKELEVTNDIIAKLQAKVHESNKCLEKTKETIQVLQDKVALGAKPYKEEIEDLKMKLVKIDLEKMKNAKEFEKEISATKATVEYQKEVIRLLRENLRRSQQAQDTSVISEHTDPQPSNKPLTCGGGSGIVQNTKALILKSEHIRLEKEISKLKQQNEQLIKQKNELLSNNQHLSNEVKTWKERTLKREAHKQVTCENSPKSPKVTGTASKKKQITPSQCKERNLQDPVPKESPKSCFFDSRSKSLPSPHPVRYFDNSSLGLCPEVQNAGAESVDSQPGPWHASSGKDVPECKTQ

Turning to `Cc1cccc(C(CCC(N)C(=O)O)(c2ccccc2)c2ccccc2)c1` (racemic), the inhibition entry in data set [1], in data set [2], in data set [4], in data set [5] and in data set [8] was “inactive” each time. The same molecule gave a GI50 with HCT-116 of 0.099 µM. The same molecule yielded a GI50 at 72 h in data set [3] of 0.038 µM. Also, the kinetic solubility in data set [6] was > 100 µM. Besides, the Time in data set [7] was 28.7 days. The T/C in [9] turned out to be 26.3%.

The values are drawn from ChEMBL document CHEMBL2021885, “Triphenylbutanamines: kinesin spindle protein inhibitors with in vivo antitumor activity” (J Med Chem, 2012).
